The results in this text go back to patent US5079260A, “Method for treating inflammation and compounds and compositions suitable for use therein” (Nova Pharmaceutical Corporation, priority 1990, dated 1992).

Structures are written as SMILES.

Experiment [1] relates to Ear Edema Caused by Oxazolone. The experiment is described as follows: Inhibition of Ear Edema Caused by Oxazolone (II), Table 10. It is filed as in vivo, CF-1 mice. The settings on record: i.p., 24 h.
The test system of experiment [2] is Adjuvant Induced Fibrinogen. The experiment in a line: Adjuvant Arthritis: Inhibition of Adjuvant Induced Fibrinogen, Table 12. The settings on record: i.p., 100 mg/kg, day 3. It is filed as in vivo, Male Sprague Dawley rats.
Experiment [3] has as its system Reverse Passive Artus Reaction. The experiment in a line: Reverse Passive Artus Reaction (II), Table 11. It is filed as in vivo, Male CD rats. The settings on record: inhibition of blueing, i.p.
Experiment [4] relates to Ear Edema Caused by Arachidonic Acid. The experiment in a line: Inhibition of Ear Edema Caused by Arachidonic Acid (II), Table 8. It is filed as in vivo, CF-1 mice. As to conditions: i.p., sixty minutes. An outline of the steps: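 CF-1 mice (25-30 g, six/group) dosed intraperitoneally with compound in DMSO or 0.5% methylcellulose 30 min before topical arachidonic acid (100 mg/mL in ethanol, both ear surfaces).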

Experiment [5] relates to Ear Edema Caused by Xylene. The experiment in a line: Inhibition of Ear Edema Caused by Xylene (II), Table 9. It is filed as in vivo, CF-1 mice. The settings on record: i.p., 2 h. An outline of the steps:
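CF-1 mice (25-30 g, six per group) received compound i.p. in DMSO or 0.5% methylcellulose 30 min before xylene was applied to both ear surfaces. Ear thickness was measured by micrometer 2 h later. Values are percent inhibition of the increase in ear thickness versus irritant-only controls.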

Experiment [6] relates to Ear Edema Caused By Tetradecanoylphorbol Acetate. The experiment in a line: Inhibition of Ear Edema Caused by Tetradecanoylphorbol Acetate (II), Table 7. It is filed as in vivo, CF-1 Mice. The settings on record: i.p., 3 h.
Experiment [7] concerns Ear Edema Caused by Tetradecanoylphorbolacetate. The experiment is described as follows: Inhibition of Ear Edema Caused by Tetradecanoylphorbolacetate (I), Table 1. It is filed as in vivo, CF-1 Mice. As to conditions: i.p. An excerpt: (§1) Such inflammatory agents typically include tetradecanoylphorbolacetate, arachidonic acid, xylene, capsaicin, oxazolone, carrageenan and the like. The reverse passive Arthus test offers another measure of the compound's utility in preventing an inflammatory response (Chang et al, Eur. J. Pharm. 69:155-164 (1981)). Test compounds are typically administered intraperitoneally or topically. For intraperitoneal administration, the test compound can be given in dimethyl sulfoxide or in 0.5% methylcellulose 30 minutes prior to administration of the irritant. For topical administration, the test compound can be dissolved in, for example, acetone, ethanol or dimethyl sulfoxide and applied about 15 minutes prior to application of the irritant. Results can be expressed as the percent decrease in swelling in the compound-treated animals as compared to control animals that receive only the irritant.
Inhibition of Ear Edema Caused by Tetradecanoylphorbolacetate (I)
CF-1 Mice, 25-30 g body weight, six animals per group, were used. Test compounds (compounds of Formula I where X is oxygen, R3, R4, A and B are hydrogen and Q is as indicated in Table 1) were administered intraperitoneally (100 mg/kg) or topically as follows. For intraperitoneal administration, the test compound was dissolved in dimethyl sulfoxide or 0.5% methylcellulose and 100 μl was injected 30 minutes prior to irritant (100 mg/kg, i.p.). For topical administration, the test compound was dissolved in either acetone, ethanol or dimethyl sulfoxide and 5 μl (100 μg) applied to the upper surface (1 cm^2) of the ear and an additional 5 μl (100 μg) applied to the lower surface (1 cm^2) of the ear fifteen minutes prior to application of the irritant. A solution of the irritant, tetradecanoylphorbolacetate, 200 μg/ml, was added to the surface of the ear, 5 μl added to the upper surface and 5 μl to the lower surface. After three hours, the thickness of the ear was measured to 0.01 mm by a micrometer with loose drag positioned at the lateral-most edge of the mid-point of the pinna. Data were calculated as the inhibition by the test compound of increased ear thickness compared to control animals receiving only the irritant.

In experiment [8] the test system is Ear Edema Caused by Oxazolone. The experiment is described as follows: Inhibition of Ear Edema Caused by Oxazolone (I), Table 5. It is filed as in vivo, CF-1 Mice. As to conditions: 24 h.
Source text: as §1
Inhibition of Ear Edema Caused by Oxazolone (I)
CF-1 Mice, 25-30 g body weight, six animals per group, were used. The mice were sensitized to the irritant two weeks prior to the test by dribbling 100 μl of a 3% solution of oxazolone in acetone onto the abdominal skin of the animal. Test compounds (compounds of Formula I where X is oxygen, R3, R4, A and B are hydrogen and Q is as indicated in Table 5) were administered intraperitoneally as follows. The test compound was dissolved in DMSO or 0.5% methylcellulose and 100 μl (100 mg/kg) was injected 30 minutes prior to irritant. The irritant, 3% oxazolone in acetone, was added to the surface of the ear, 5 μl added to the upper surface and 5 μl to the lower surface. After twenty four hours, the thickness of the ear was measured to 0.01 mm by a micrometer with loose drag positioned at the lateral-most edge of the mid-point of the pinna. Data were calculated as the inhibition by the test compound of increased ear thickness compared to control animals receiving only the irritant.

Experiment [9] deals with Reverse Passive Artus Reaction. The experiment is described as follows: Reverse Passive Artus Reaction (I), Table 6. It is filed as in vivo, Male CD rats. The settings on record: inhibition of blueing.
Source text: as §1
Reverse Passive Artus Reaction (I)
Male CD rats weighing between 200 and 250 g were used. Test compounds (compounds of Formula I where X is oxygen, R3, R4, A and B are hydrogen and Q is as indicated in Table 6) were dissolved in dimethyl sulfoxide and 200 μl of this solution (100 mg/kg) were injected intraperitoneally one hour before administration of the antigen. The animals were anesthetized inhalationally with isoflurane and then were injected through the penile vein with 1 ml of a solution of 2.5 mg of Evan's blue dye and 5.0 mg of human serum albumin in 1 ml of saline. This treatment was followed immediately by intracutaneous injections of 0.03 ml of anti-human albumin diluted to contain 3.65 mg of antibody at 3 sites along the midline back. Anesthesia was terminated and after three hours the animals were sacrificed. The skin was removed and the blue stained areas cut out. […] The tube contents were agitated and centrifuged, and the absorbance of the supernatant liquid was measured at 620 nm. The data were calculated as inhibition of blueing by test compound compared to control animals receiving only antigen and antibody.

Experiment [10] concerns Ear Edema Caused by Arachidonic Acid. The experiment in a line: Inhibition of Ear Edema Caused by Arachidonic Acid (I), Table 2. Format: in vivo, CF-1 Mice. The settings on record: i.p., 100 mg/kg; ear thickness at sixty minutes.
Source text: as §1
Inhibition of Ear Edema Caused by Arachidonic Acid (I)
CF-1 Mice, 25-30 g body weight, six animals per group, were used. Test compounds (compounds of Formula I where X is oxygen, R3, R4, A and B are hydrogen and Q is as indicated in Table 2) were administered intraperitoneally (100 mg/kg) as follows. For intraperitoneal administration, test compound was dissolved in DMSO or 0.5% methylcellulose and 100 μl was injected 30 minutes prior to i.p. administration of 100 mg/kg of arachidonic acid. A solution of the irritant, arachidonic acid, 100 mg/ml in ethanol, was added to the surface of the ear, 5 μl added to the upper surface and 5 μl to the lower surface. After sixty minutes, the thickness of the ear was measured to 0.01 mm by a micrometer with loose drag positioned at the lateral-most edge of the mid-point of the pinna. Data were calculated as the percent inhibition by the test compound of increased ear thickness compared to control animals receiving only the irritant.

Experiment [11] deals with Ear Edema Caused by Xylene. The experiment is described as follows: Inhibition of Ear Edema Caused by Xylene (I), Table 3. Format: in vivo, CF-1 Mice. As to conditions: 2 h; for % Inhibition Intraperitoneal: i.p., 100 mg/kg, 30 min before irritant.
Source text: as §1
Inhibition of Ear Edema Caused by Xylene (I)
CF-1 Mice, 25-30 g body weight, six animals per group, were used. Test compounds (compounds of Formula I where X is oxygen, R3, R4, A and B are hydrogen and Q is as indicated in Table 3) were administered intraperitoneally (100 mg/kg) or topically as follows. For intraperitoneal administration, the test compound was dissolved in DMSO or 0.5% methylcellulose and 100 μl was injected 30 minutes prior to irritant. For topical administration, test compound was dissolved in either acetone, ethanol or dimethyl sulfoxide and 5 μl (10 μg) applied to the upper surface (1 cm^2) of the ear and an additional 5 μl (10 μg) applied to the lower surface (1 cm^2) of the ear fifteen minutes prior to application of the irritant. The irritant, xylene, was added to the surface of the ear, 20 μl added to the upper surface and 20 μl to the lower surface. After two hours, the thickness of the ear was measured to 0.01 mm by a micrometer with loose drag positioned at the lateral-most edge of the mid-point of the pinna. Data were calculated as the inhibition by the test compound of increased ear thickness compared to that of control animals receiving only the irritant.

The mark [12] stands for this setting: 100 mg/kg, 30 min before irritant, ear thickness at 3 h.

The term % Inhibition denotes the relative decrease from the control value, in per cent. Turning to `CC(C)C[C@H](NC(=O)OCC1c2ccccc2-c2ccccc21)C(N)=O` [NPC 15528, N-[(9H-Fluoren-9-ylmethoxy)carbonyl]-L-leucine Amide], the “% Inhibition Intraperitoneal” value in [1] (10 mg/kg) is listed as 41%; in [1] (30 mg/kg) it was 25%; in experiment [1] (100 mg/kg), 46%; in experiment [3] (100 mg/kg), 0%; in experiment [4] (10 mg/kg) it was 31%; in experiment [4] (30 mg/kg), 32%. Besides, the “% Inhibition Intraperitoneal” value in experiment [4] (100 mg/kg) is 35%; in experiment [6] (10 mg/kg) it was 61%; in [6] (30 mg/kg), 64%; in experiment [6] (100 mg/kg) it was 75%. The “% Inhibition” value is listed as 0% in experiment [2], 20% in experiment [5] (10 mg/kg), 27% in experiment [5] (30 mg/kg) and 39% in experiment [5] (100 mg/kg).
For the compound `C[C@@H]1C[C@H]2[C@@H]3CCC4=CC(=O)C=C[C@]4(C)[C@@]3(F)[C@@H](O)C[C@]2(C)[C@@]1(O)C(=O)CO` [Dexamethasone, reference compound], the “% Inhibition Intraperitoneal” value in experiment [3] (10 mg/kg) is 4%; in [4] (10 mg/kg), 12%; in [7] (Reference Standard, 10 mg/kg, 3 h) it was 50%; in [6] (10 mg/kg), 50%; in experiment [8] (Reference Standard at 10 mg/kg) it was 48%. Further, the “% Inhibition” value in experiment [5] (10 mg/kg) stood at 34%.
Consider `COc1cc2c(c(OC)c1OC)-c1ccc(OC)c(=O)cc1[C@@H](NC(C)=O)CC2` [Colchicine, reference compound], for which the “% Inhibition Intraperitoneal” value in experiment [9] (Reference Standard 1 mg/kg) was 64%.
Consider `CN1C(C(=O)Nc2ccccn2)=C(O)c2ccccc2S1(=O)=O` [Piroxicam, reference compound], for which the “% Inhibition Intraperitoneal” value in experiment [10] amounted to 86%; in experiment [11] it was 74%; in experiment [4] (10 mg/kg), 56%; in experiment [4] (30 mg/kg), 77%; in experiment [4] (100 mg/kg), 86%; in experiment [7] (setting [12]), 40%. The “% Inhibition Intraperitoneal” value in experiment [6] (10 mg/kg) came to 7%; in [6] (30 mg/kg) it was 14%; in experiment [6] (100 mg/kg) it was 40%. For the same compound, the “% Inhibition” value in experiment [5] (10 mg/kg) is 53%; in experiment [5] (30 mg/kg) it was 49%; in [5] (100 mg/kg), 74%.
On to `O=C(N[C@@H](Cc1ccccc1)C(=O)O)OCC1c2ccccc2-c2ccccc21` [L-Phenylalanine, N-[(9H-Fluoren-9-ylmethoxy)carbonyl]-L-phenylalanine], for which the “% Inhibition Intraperitoneal” value in experiment [9] (i.p., 100 mg/kg, one hour before antigen) stood at 47%; in [10], 70%; in experiment [11], 49%; in experiment [7] (setting [12]), 78%; in [8] (i.p., 100 mg/kg, 30 min before irritant, sensitized mice) it was 62%. In experiment [11] (topical, 10 μg upper + 10 μg lower ear surface, 15 min before irritant), the “% Inhibition, topical” value turned out to be 50%.
On to `CC(C)C[C@H](NC(=O)OCC1c2ccccc2-c2cc3ccccc3cc21)C(=O)O` (stereo partly drawn) [NPC 15510, N-[9H-(2,3-Benzofluoren-9-ylmethoxy)carbonyl]-L-leucine], for which the “% Inhibition Intraperitoneal” value is recorded as -7% in experiment [1] (10 mg/kg); 3% in experiment [1] (30 mg/kg); 101% in experiment [1] (100 mg/kg); 50% in [3] (100 mg/kg); -24% in experiment [4] (10 mg/kg); 69% in experiment [4] (30 mg/kg). The “% Inhibition Intraperitoneal” value in experiment [4] (100 mg/kg) turned out to be 67%; in experiment [6] (10 mg/kg), 48%; in experiment [6] (30 mg/kg), 70%; in [6] (100 mg/kg), 70%. For the same compound, the “% Inhibition” value in [2] is 35%; in experiment [5] (10 mg/kg), 40%; in experiment [5] (30 mg/kg), 40%; in experiment [5] (100 mg/kg), 49%.
